Where a name gives a salt, the structure may show the parent alone. Read-outs that look alike come from different tables or passages of the source.
Key:
[1] = system: p-ERK in AGS cells; assay: Inhibition of p-ERK in AGS cells (LANCE Ultra phospho-ERK1/2 kit); type: cell-based; details: Homo sapiens, read-out: AGS_pERK IC50
Method: 1. Experimental objective: The inhibition activity of the example compounds on the phosphorylated ERK level in KRAS G12D mutant cells AGS was determined. 2. Experimental instruments: • 2.1 Instruments: Envison; Pipette (Eppendorf & Rainin) • 2.2 Reagents: AGS cells were purchased from COBIOER BIOSCIENCES CO., LTD, with a catalog number of CBP60476; Phosphorylated ERK1/2 (T202-Y204) LANCE Ultra Cellular Detection Kit was purchased from PerkinElmer, with a catalog number of TRF4000M; RPMI 1640 was purchased from Gibco, with a catalog number of 22400071; FBS was purchased from Gibco, with a catalog number of 10091148; PBS was purchased from Gibco, with a catalog number of 10010023; trypsin was purchased from Gibco, with a catalog number of 25200056; cell culture plates were purchased from Corning Company, with a catalog number of 3610; White opaque OptiPlate™-384 plates were purchased from PerkinElmer, with a catalog number of 6007290. 3. Experimental method: When AGS cells were cultured to appropriate confluence, the AGS cells were collected, and the cell density was adjusted to 4 × 10^5/mL using complete culture medium. The cell suspension was plated onto a 96-well plate at 100 µL per well, and the plate was placed in the incubator at 37°C and 5% CO2 for adherent culture overnight. Solutions of the compound with different concentrations were formulated using DMSO and complete culture medium, and a vehicle control was set up. The solutions of the compound were added to the 96-well plate at 25 µL per well, and the plate was placed in the incubator at 37°C and 5% CO2 for further culture for 2 h. Then, the supernatant of the cell culture plate was discarded, 50 µL of lysis buffer was added to each well, the cells were lysed at room temperature under shaking for 30 min, then placed in a centrifuge and centrifuged at 1000 rpm for 1 min. 15 µL of supernatant was transferred to a 384-well plate, 5 µL of detection mixture was added to each well (Eu-labeled anti-ERK1/2 (T202-Y204) Antibody at a final detection concentration of 0.5 nM and ULight labeled anti-ERK1/2 Antibody at a final detection concentration of 5 nM), centrifuged at 1000 rpm for 1 min, mixed evenly, and reacted at room temperature overnight. The plate was read using Envison and the signal values at the emission wavelengths of 620 nm and 665 nm were detected using a time-resolved fluorescence program. 4. […] Graphpad Prism software was used to fit the concentration and inhibition rate to a nonlinear regression curve, so as to obtain the IC50 value. Table 5: Inhibition activity of the compounds on p-ERK in AGS cells

[2] = system: GP2D; assay: Inhibition of proliferation of KRAS G12D mutant tumor cell line GP2D (CellTiter-Glo); details: Homo sapiens, GP2d, 72 h, read-out: GP2D IC50
[3] = Pharmacokinetic determination in rats (IV and PO, plasma, LCMS/MS); type: in vivo, SD rats; details: male SD rats; for AUC(0-inf): read-out: AUCo-∞; for half-life: read-out: T1/2 (converted)
Outline: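 Male SD rats (3/group), fasted overnight, dosed PO at 30 mg/kg in 10% Captisol/50 mM citrate pH 5.0 or IV at 1 mg/kg in 5% DMSO/10% Solutol HS15/85% PBS. Jugular plasma (EDTA-2K) sampled predose to 24 h; analysed by LCMS/MS.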

[4] = rat, in vivo, IV, 1 mg/kg, overnight fasting, plasma
[5] = rat, in vivo, PO, 30 mg/kg, overnight fasting, plasma

| SMILES | IC50 ([1]; AGS, 2 h) | IC50 [2] | F ([3]; PO 30 mg/kg vs IV 1 mg/kg) | AUC(0-inf) [3, 4] | C0 ([3]; rat, in vivo, IV, 1 mg/kg, overnight fasting, plasma, read-out: C0) | clearance ([3]; rat, in vivo, IV, 1 mg/kg, overnight fasting, plasma, read-out: CL) | half-life [3, 4] | AUC(0-inf) [3, 5] | Cmax ([3]; rat, in vivo, PO, 30 mg/kg, overnight fasting, plasma, read-out: Cmax) | half-life [3, 5] | Tmax ([3]; rat, in vivo, PO, 30 mg/kg, overnight fasting, plasma, read-out: Tmax) | IC50 ([1]; AGS cells, 2 h with compound) |
| --- | --- | --- | --- | --- | --- | --- | --- | --- | --- | --- | --- | --- |
| C#Cc1c(F)ccc2cc(O)cc(-c3nc4c5c(nc(OCC6(CN7CCC(=CF)CC7)CC6)nc5c3F)N3C[C@H]5CC[C@H](N5)[C@H]3[C@H](CC)O4)c12 [Example 137, 4-((5S,5aS,6S,9R)-12-((1-((4-(fluoromethylene)piperidin-1-yl)methyl)cyclopropyl)methoxy)-5-ethyl-1-fluoro-5a,6,7,8,9,10-hexahydro-5H-4-oxa-3,10a,11,13,14-pentaaza-6,9-methylnaphtho[1,8-ab]hept-2-yl)-5-ethynyl-6-fluoronaphthalen-2-ol] | 5.8 nM | 0.41 nM | 9.7% | 793 ng·h/mL | 1630 ng/mL | 21 mL/min/kg | 11.3 h | 2110 ng·h/mL | 271 ng/mL | 6.2 h | 4 h | – |
| [2H]C([2H])([2H])[C@@H]1Oc2nc(-c3cc(O)cc4ccc(F)c(C#C)c34)c(F)c3nc(OCC4(CN5CCC(=NOC)CC5)CC4)nc(c23)N2C[C@H]3CC[C@H](N3)[C@@H]12 [Example 338, 1-((1-((((5S,5aS,6S,9R)-2-(8-ethynyl-7-fluoro-3-hydroxynaphthalen-1-yl)-1-fluoro-5-deuteratedmethyl-5a,6,7,8,9,10-hexahydro-5H-4-oxa-3,10a,11,13, 14-pentaaza-6,9-methylenenaphtho[1,8-ab]heptalen-12-yl)oxo)methyl)cyclopropyl)methyl)piperidin-4-one O-methyloxime formate] | – | 0.34 nM | – | – | – | – | – | – | – | – | – | 2.8 nM |

Source: patent EP4635958A1, “PYRIMIDINE-CONTAINING POLYCYCLIC DERIVATIVE INHIBITOR, AND PREPARATION METHOD THEREFOR AND USE THEREOF” (Shanghai Hansoh Biomedical Co., Ltd., priority 2022, dated 2024)
